Data: patent publication US12138398B2, “Methods and devices for providing a stimulus to a subject to induce gamma oscillations” (Massachusetts Institute of Technology, priority 2015, dated 2024)
Values joined by “and” are separate entries in the source; they are usually repeats but may differ in a detail not shown here. Equal values may be shown once. Read-outs that look alike come from different tables or passages of the source.

What was measured:
[1] = test system: organotypic hippocampal slices prepared from transgenic (Tg) mice overexpressing APP; settings: cited from earlier work
[2] = test system: Aβ1-40 and Aβ1-42 levels in 5×FAD visual cortex; assay: Aβ ELISA of visual cortex after one hour 40-Hz light flicker with picrotoxin pretreatment; assay type: in vivo, mouse
From the text: FIGS. 47A and 47B are bar graphs depicting changes in baseline levels of Aβ1-40 and Aβ1-42, respectively, in 5×FAD visual cortex in dark, light, 40-Hz flicker, 20-Hz flicker, 80-Hz flicker, 40-Hz flicker with picrotoxin (PTX) and Random flicker conditions in accordance with some embodiments (n=12 mice per group for dark; n=6 mice per group for light, 40-Hz flicker, 20-Hz flicker, 80-Hz flicker, and PTX; n=4 mice per group for Random flicker; “n.s.” indicates not significant, one asterisk indicates p<0.05, and two asterisks indicate p<0.01 by one-way ANOVA). FIGS. 47 and 47B show mean and SEM. Circles superimposed on bars in the bar graphs indicate individual data points in each group. Following one hour after light exposure, it was observed that Aβ1-40 levels in visual cortex were reduced by 57.96% and Aβ1-42 levels by 57.97% compared to the dark condition (as measured by Aβ ELISA, see, e.g., FIGS. 47A and 47B, p<0.05 by one-way ANOVA, n=6 mice per group). Compared to light controls, amyloid levels were reduced by 62.47% (Aβ1-40) and 68.55% (Aβ1-42) following one hour of 40-Hz flicker (as measured by Aβ ELISA, see, e.g., FIG. 4′7, p<0.05 by one-way ANOVA, n=6 mice per group). […]
Fifteen minutes prior to the experiment 5×FAD mice were treated with saline (Control) or picrotoxin (0.18 mg/kg). For molecular and biochemical analyses mice were then placed in a dark chamber illuminated by an LED bulb and exposed to one of five stimulation conditions: dark, light, 20-Hz flicker, 40-Hz flicker, or 80-Hz flicker (12.5 ms light on, 12.5 ms light off) for one hour (see, e.g., FIG. 43A). For electrophysiological recordings each animal received dark, light, 40-Hz flicker, or random (light pulses were delivered with a random interval determined by a Poisson process with an average interval of 40 Hz) stimulation conditions interleaved in 10 s blocks during recordings. […]

AD patients = settings: cited from earlier work
[3] = 5×FAD visual cortex (VC), 40 Hz flicker one hour + PTX (0.18 mg/kg pretreatment), ELISA dilution 1:2, individual mice

picrotoxin [PTX]
neuronal activity ([1]; organotypic hippocampal slices, APP Tg mice): increased neuronal activity
effects of 40-Hz flicker on Aβ levels after picrotoxin pretreatment ([2]; 5×FAD mice, picrotoxin 0.18 mg/kg): completely abrogated
Average Aβ1-40 Concentration [2, 3]: 367.2 pg/ml and 431.4 pg/ml and 445.2 pg/ml (2×) and 392.4 pg/ml and 386.7 pg/ml
Aβ1-42 concentration [2, 3]: 396.6 pg/ml and 540.5 pg/ml and 532.7 pg/ml and 705.0 pg/ml and 104.5 pg/ml (2×)

CCN(C)C(=O)Oc1cccc([C@H](C)N(C)C)c1 [rivastigmine]
clinical outcome on cognition (AD patients; AD subjects): only mild cognitive benefits

CC(C)[C@H](O)C(=O)N[C@@H](C)C(=O)N[C@@H]1C(=O)N(C)CCc2ccccc21 [semagacestat]
clinical outcome on cognition (AD patients; AD subjects): worsening of cognitive deficits

COc1cc2c(cc1OC)C(=O)C(CC1CCN(Cc3ccccc3)CC1)C2 (stereo not drawn) [donepezil]
clinical outcome on cognition (AD patients; human, in vivo): only mild cognitive benefits

NC1=N[C@H](O)[C@H]2[C@H]3O[C@]4(O)O[C@@H]([C@@H](O)[C@@]2(N1)[C@@H]4O)[C@]3(O)CO [tetrodotoxin]
Aβ levels [1]: decreased
neuronal activity [1]: decreased
